Biological target: T1, human CCR10 (Homo sapiens, UniProt P46092)
T1 construct: expressed in transfected cells; host or cells: KJMGER8 cells (Namalwa cell-derived line), beta-estradiol-induced; hCCR10G16 cells
T1 sequence (P46092 1-362): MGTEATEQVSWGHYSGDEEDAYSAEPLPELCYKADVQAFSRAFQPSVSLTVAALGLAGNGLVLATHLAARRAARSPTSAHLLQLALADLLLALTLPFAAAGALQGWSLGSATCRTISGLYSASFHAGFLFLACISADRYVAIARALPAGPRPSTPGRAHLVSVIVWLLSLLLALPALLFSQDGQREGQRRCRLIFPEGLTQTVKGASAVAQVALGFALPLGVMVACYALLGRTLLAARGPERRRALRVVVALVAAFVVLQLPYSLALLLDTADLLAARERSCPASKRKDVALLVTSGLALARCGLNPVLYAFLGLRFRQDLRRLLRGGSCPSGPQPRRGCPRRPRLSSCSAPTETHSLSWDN
Assay: CCR10 antagonistic effect: calcium assay of human CCR10 (CTACK-induced increase of intracellular calcium in hCCR10G16 cells)
Type: cell-based
Settings: at a concentration of not more than 1000 nmol/L; human CCR10-expressing hCCR10G16 cells, 300 nmol/L CTACK added; read-out: inhibition of increase in the calcium ion concentration
Procedure: [Experimental Example 1] CCR10 Antagonistic Effect
(1) Preparation of Human CCR10-Inducible Expression Plasmid
A CCR10-inducible expression plasmid was prepared according to a known method [Analytical Biochemistry, 2006, vol. 400, page 163]. A DNA encoding human CCR10 was obtained by PCR. Using human chromosome DNA (100 ng; manufactured by Clontech) as a template, synthetic DNA having the sequences depicted in SEQ ID NOs: 1 and 2 as a human CCR10 cDNA specific primer, and Pyrobest DNA Polymerase (manufactured by TAKARA SHUZO CO. LTD.) as an enzyme, a DNA encoding human CCR10 was obtained by PCR. As a buffer for PCR, the buffer attached to the enzyme to be used, which was diluted 10-fold with deionized water, was used. Using Thermal Cycler DNA Engine (manufactured by MJ Research), PCR was performed by 35 cycles of reactions composed of an incubation at 94° C. for 30 sec, at an anneal temperature of 58° C. for 30 sec, and at 72° C. for 1 min after treating at 90° C. for 2 min.
The amplified PCR fragment was cleaved with HindIII and NotI, then a human CCR10 DNA fragment was recovered by the agarose gel electrophoresis method. The fragment was incorporated between the corresponding restriction enzyme sites (HindIII-NotI) of an inducible expression vector to construct a human CCR10-inducible expression plasmid.
Using a primer specific to the sequence of plasmid (synthetic DNA having the sequences shown in SEQ ID NOs: 3 and 4), the sequence of human CCR10 DNA region was determined. For the determination of the base sequence, DNA Sequencer 377 (manufactured by Perkin Elmer. Co.) and a reaction kit (ABI Prism (registered trade mark) BigDye (registered trade mark) Terminator Cycle Sequencing Ready Reaction kit: manufactured by Applied Biosystems) were used. The sequence of human CCR10 DNA was identical with the sequence (NM 016602) registered in GenBank.
(2) Preparation of Human CCR10 Expressing Cell for Calcium Assay
Cells for detecting signals from human CCR10 in calcium assay were prepared. According to a known method [Analytical.Biochemistry (Analy Biochem), 2006, vol. 400, page 163], human CCR10-inducible expressing cells whose host cell is KJMGER8 cell (Namalwa cell-derived cell line) were prepared. Human CCR10-inducible expression plasmid produced above and Gα16 expression plasmid were co-transfected into the KJMGER8 cells by the electroporation method [Cytotechnology, 1990, vol. 3, page 133], whereby the signals from human CCR10 could be detected by calcium assay (hereinafter to be referred to as hCCR10G16 cell). A Ga16 expression plasmid was produced by incorporating human Ga16 DNA into expression vector pAMoh (WO 03/087366). Expression of human CCR10 was induced by cultivating hCCR10G16 cells in the presence of 10 nmol/L β-estradiol (manufactured by Sigma Ltd.) for 24 hr.
(3) Calcium Assay of Human CCR10
Cells expressing human CCR10 induced by the above-mentioned method were suspended in RPMI1640 medium (manufactured by Invitrogen), and adjusted to a cell density of 2×10^6 cells/mL. The cells were blended with an equivalent volume of a loading buffer prepared according to the attached protocol of Fluo-3 calcium assay kit (manufactured by Molecular Devices Corporation), and incubated at 37° C. for several dozen minutes. This mixture was dispensed to a 384 well clear-bottom plate (manufactured by Corning Incorporated) at 40 μL/well. To this plate was added a solution of the test compound in dimethyl sulfoxide (DMSO), which was diluted 37-fold with RPMI1640 medium, at 5 μL/well, and the mixture was incubated at 37° C. for 30 min. 300 nmol/L human recombinant CTACK (manufactured by R&D Systems, Inc.) diluted with RPMI1640 medium containing 1 w/v % bovine serum albumin (manufactured by Sigma Ltd.) was added at 5 μL/well and, variation of intracellular calcium ion concentration for about 5 min after the addition was measured by a screening apparatus (FDSS; manufactured by Hamamatsu Photonics K.K.). […]

Compound | inhibition at up to 1 µM
Cc1cc(Nc2cc(S(N)(=O)=O)ncc2C(=O)N2CCC(c3ccc(F)cc3)CC2)c(Cl)cc1Cl [Compound 51, 4-(2,4-dichloro-5-methylphenylamino)-5-[4-(4-fluorophenyl)piperidine-1-carbonyl]pyridine-2-sulfonamide] | ≥ 50%
Cc1cc(Nc2cc(S(N)(=O)=O)ncc2C(=O)N2CCC(c3ccc(F)cc3)CC2)c(Cl)cc1F [Compound 52, 4-(2-chloro-4-fluoro-5-methylphenylamino)-5-[4-(4-fluorophenyl)piperidine-1-carbonyl]pyridine-2-sulfonamide] | ≥ 50%
Cc1ccc(C)c(Nc2cc(S(N)(=O)=O)ncc2C(=O)N2CCC(c3ccc(F)cc3)CC2)c1 [Compound 53, 4-(2,5-dimethylphenylamino)-5-[4-(4-fluorophenyl)piperidine-1-carbonyl]pyridine-2-sulfonamide] | ≥ 50%
Cc1ccc(Nc2cc(S(N)(=O)=O)ncc2C(=O)N2CCC(c3ccc(F)cc3)CC2)c(C)c1 [Compound 55, 4-(2,4-dimethylphenylamino)-5-[4-(4-fluorophenyl)piperidine-1-carbonyl]pyridine-2-sulfonamide] | ≥ 50%
Cc1ccc(Nc2cc(S(N)(=O)=O)ncc2C(=O)N2CCC(c3ccc(F)cc3)CC2)c(F)c1 [Compound 56, 4-(2-fluoro-4-methylphenylamino)-5-[4-(4-fluorophenyl)piperidine-1-carbonyl]pyridine-2-sulfonamide] | ≥ 50%
Cc1c(Cl)cccc1Nc1cc(S(N)(=O)=O)ncc1C(=O)N1CCC(c2ccc(F)cc2)CC1 [Compound 57, 4-(3-chloro-2-methylphenylamino)-5-[4-(4-fluorophenyl)piperidine-1-carbonyl]pyridine-2-sulfonamide] | ≥ 50%
Cc1ccc(Nc2cc(S(N)(=O)=O)ncc2C(=O)N2CCC(c3ccc(F)cc3)CC2)c(Cl)c1 [Compound 58, 4-(2-chloro-4-methylphenylamino)-5-[4-(4-fluorophenyl)piperidine-1-carbonyl]pyridine-2-sulfonamide] | ≥ 50%
Cc1c(Nc2cc(S(N)(=O)=O)ncc2C(=O)N2CCC(c3ccc(F)cc3)CC2)ccc(Cl)c1F [Compound 59, 4-(4-chloro-3-fluoro-2-methylphenylamino)-5-[4-(4-fluorophenyl)piperidine-1-carbonyl]pyridine-2-sulfonamide] | ≥ 50%
Cc1c(F)cccc1Nc1cc(S(N)(=O)=O)ncc1C(=O)N1CCC(c2ccc(F)cc2)CC1 [Compound 60, 4-(3-fluoro-2-methylphenylamino)-5-[4-(4-fluorophenyl)piperidine-1-carbonyl]pyridine-2-sulfonamide] | ≥ 50%
Cc1c(Nc2cc(S(N)(=O)=O)ncc2C(=O)N2CCC(c3ccc(F)cc3)CC2)cccc1C(F)(F)F [Compound 61, 5-[4-(4-fluorophenyl)piperidine-1-carbonyl]-4-[2-methyl-3-(trifluoromethyl)phenylamino]pyridine-2-sulfonamide] | ≥ 50%
Cc1ccc(F)cc1Nc1cc(S(N)(=O)=O)ncc1C(=O)N1CCC(c2ccc(F)cc2)CC1 [Compound 62, 4-(5-fluoro-2-methylphenylamino)-5-[4-(4-fluorophenyl)piperidine-1-carbonyl]pyridine-2-sulfonamide] | ≥ 50%
Cc1ccc(Nc2cc(S(N)(=O)=O)ncc2C(=O)N2CCC(c3ccc(F)cc3)CC2)cc1F [Compound 64, 4-(3-fluoro-4-methylphenylamino)-5-[4-(4-fluorophenyl)piperidine-1-carbonyl]pyridine-2-sulfonamide] | ≥ 50%
Cc1cccc(Nc2cc(S(N)(=O)=O)ncc2C(=O)N2CCC(c3ccc(F)cc3)CC2)c1C [Compound 65, 4-(2,3-dimethylphenylamino)-5-[4-(4-fluorophenyl)piperidine-1-carbonyl]pyridine-2-sulfonamide] | ≥ 50%
Cc1c(Cl)ccc(Nc2cc(S(N)(=O)=O)ncc2C(=O)N2CCC(c3ccc(F)cc3)CC2)c1C [Compound 66, 4-(4-chloro-2,3-dimethylphenylamino)-5-[4-(4-fluorophenyl)piperidine-1-carbonyl]pyridine-2-sulfonamide] | ≥ 50%
Cc1cc(Nc2cc(S(N)(=O)=O)ncc2C(=O)N2CCC(c3ccc(F)cc3)CC2)c(F)cc1Cl [Compound 67, 4-(4-chloro-2-fluoro-5-methylphenylamino)-5-[4-(4-fluorophenyl)piperidine-1-carbonyl]pyridine-2-sulfonamide] | ≥ 50%
Cc1ccc(F)c(Nc2cc(S(N)(=O)=O)ncc2C(=O)N2CCC(c3ccc(F)cc3)CC2)c1 [Compound 68, 4-(2-fluoro-5-methylphenylamino)-5-[4-(4-fluorophenyl)piperidine-1-carbonyl]pyridine-2-sulfonamide] | ≥ 50%
COc1ccc(Cl)cc1Nc1cc(S(N)(=O)=O)ncc1C(=O)N1CCC(c2ccc(F)cc2)CC1 [Compound 69, 4-(5-chloro-2-methoxyphenylamino)-5-[4-(4-fluorophenyl)piperidine-1-carbonyl]pyridine-2-sulfonamide] | ≥ 50%
NS(=O)(=O)c1cc(Nc2cc(F)ccc2Cl)c(C(=O)N2CCC(c3ccc(F)cc3)CC2)cn1 [Compound 70, 4-(2-chloro-5-fluorophenylamino)-5-[4-(4-fluorophenyl)piperidine-1-carbonyl]pyridine-2-sulfonamide] | ≥ 50%
NS(=O)(=O)c1cc(Nc2cc(F)c(Cl)cc2Cl)c(C(=O)N2CCC(c3ccc(F)cc3)CC2)cn1 [Compound 71, 4-(2,4-dichloro-5-fluorophenylamino)-5-[4-(4-fluorophenyl)piperidine-1-carbonyl]pyridine-2-sulfonamide] | ≥ 50%
Cc1cccc(F)c1Nc1cc(S(N)(=O)=O)ncc1C(=O)N1CCC(c2ccc(F)cc2)CC1 [Compound 72, 4-(2-fluoro-6-methylphenylamino)-5-[4-(4-fluorophenyl)piperidine-1-carbonyl]pyridine-2-sulfonamide] | ≥ 50%
NS(=O)(=O)c1cc(Nc2c(F)cccc2F)c(C(=O)N2CCC(c3ccc(F)cc3)CC2)cn1 [Compound 73, 4-(2,6-difluorophenylamino)-5-[4-(4-fluorophenyl)piperidine-1-carbonyl]pyridine-2-sulfonamide] | ≥ 50%
NS(=O)(=O)c1cc(Nc2cccc(F)c2Cl)c(C(=O)N2CCC(c3ccc(F)cc3)CC2)cn1 [Compound 74, 4-(2-chloro-3-fluorophenylamino)-5-[4-(4-fluorophenyl)piperidine-1-carbonyl]pyridine-2-sulfonamide] | ≥ 50%

Reference: patent US9701689B2, “Substituted pyridines and pyridazines as CCR10 receptor inhibitors” (KYOWA HAKKO KIRIN CO., LTD., priority 2012, dated 2017)
